Data reported in patent US20100120690A1, “Polypeptides Having Antimicrobial Activity and Polynucleotides Encoding Same” (Novozymes Adenium Biotech A/S, priority 2005, published 2010).

Columns and labels:
[1] = test system: Staphylococcus aureus, ATCC 25923; assay: MIC, NCCLS/CLSI guidelines (Example 5), strain B; format: cell-based; conditions: average of two independent experiments
How it was run: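 Recombinant plectasin variants, expressed and purified; MIC per NCCLS/CLSI; n=2 independent expts, averaged; reported as category vs wild-type MIC (0 >100%, 1 80-100%, 2 50-80%, 3 <50%).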

B. subtilis = assay: Minimal Inhibitory Concentration, NCCLS guidelines (Example 4); format: cell-based, Bacillus subtilis; conditions: purified peptide
Procedure: (§1) The Minimal Inhibitory Concentration (MIC, micrograms/mL) was determined to test for their antimicrobial activity following the NCCLS guidelines (Clinical and Laboratory Standards Institute; formerly known as National Committee for Clinical and Laboratory Standards).

[2] = test system: Staphylococcus carnosus ATCC51365; assay: Yeast screening assay: radial diffusion assay of yeast supernatants; format: cell-based; design: key: An activity of 3 is better than Plectasin; An activity of 2 corresponds to the activity of Plectasin; 1 is worse than Plectasin; conditions: yeast supernatant, clearing zone in radial diffusion assay
How it was run: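 Activity scores (1 worse, 2 equal, 3 better than wild-type plectasin) come from the size of the radial-diffusion clearing zone against S. carnosus at 5×10^5 cfu/mL. Test samples were culture supernatants of yeast transformants induced with galactose for 3 days at 30 °C, and plates were developed at 37 °C with MTT.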

S. epidermis = assay: Minimal Effective Concentration (MEC) assay; format: cell-based, Staphylococcus epidermidis
Procedure: Three antimicrobial polypeptides, which are variants of SEQ ID NO: 1, were tested for antimicrobial activity. A Minimal Effective Concentration assay (MEC, expressed as micrograms/mL) against different microorganisms was performed using the three plectasin mutants, Y40YR, N17R and Y25R following the protocol described in the book of Methods in Molecular Biology, Vol. 78, Antibacterial peptide protocol William M. Shafer, Human Press.

[3] = test system: panel of 6 different strains of Staphylococcus aureus; assay: Average MIC, NCCLS/CLSI guidelines using caMHB (Example 6); format: cell-based; conditions: average over 6 S. aureus strains, duplicate; MIC above 32 counted as 64; read after 18-24 hours at 37° C.
How it was run: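 Six Staphylococcus aureus strains, MSSA and MRSA, were exposed in duplicate to peptide dilutions from 32 down to 0.03 microgram/mL in caMHB following CLSI guidance. Growth was scored after 18-24 h incubation at 37° C. The tabulated value is the mean MIC, with 64 used for any MIC >32 micrograms/mL.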

S. aureus = assay: Minimal Inhibitory Concentration, NCCLS guidelines (Example 4); format: cell-based, Staphylococcus aureus; conditions: purified peptide
Procedure: as §1

GFGCNGPWDEDDMQCHNHCKSIKGYKGGYCAKGGFVCKCY (listed as Pseudoplectania nigrella) [wildtype, wildtype plectasin, parent antimicrobial polypeptide, reference compound]
MIC, strain B [1]: (22 μg/mL) | Relative MIC, strain B ([1]; relative to wildtype Plectasin): 1 (80-100% of Plectasin wildtype MIC) | MIC against B. subtilis (B. subtilis): 1 micrograms/mL | Activity (antimicrobial activity relative to the activity of plectasin) [2]: 2 | MEC against S. epidermis (S. epidermis): 0.98 micrograms/mL | Average MIC [3]: 14 micrograms/mL | MIC against S. aureus (S. aureus): 8 micrograms/mL
